In US20260015353A1, “NOVEL COMPOUNDS” (Hoffmann-La Roche Inc., priority 2022, published 2026):

Tests used:
NLRP3 [1] = target: T1, NLRP3 (Homo sapiens, UniProt Q96P20); assay: THP-1 cells pyroptosis assay (LPS + nigericin, resazurin readout); format: cell-based; set-up: Seed THP-1 cells (25,000cells/well) containing 1.0 μg/ml LPS; host or cells: THP-1 cells, LPS-primed, nigericin-stimulated; conditions: 1.0 μg/ml LPS, compound 3 hours, nigericin 5 μM 1 hr
Method: THP-1 cells (ATCC #TIB-202) were grown in RPMI containing L-glutamine (Gibco #11835) supplemented with 1 mM sodium pyruvate (Sigma #S8636) and penicillin (100 units/ml)/streptomycin (0.1 mg/ml) (Sigma #P4333) in 10% Fetal Bovine Serum (FBS) (Sigma #F0804). The cells were routinely passaged and grown to confluency (˜10^6cells/ml). On the day of the experiment, THP-1 cells were harvested and resuspended into RPMI medium (without FBS). The cells were then counted and viability (>90%) checked by Trypan blue (Sigma #T8154). Appropriate dilutions were made to give a concentration of 625,000cells/ml. To this diluted cell solution was added LPS (Sigma #L4524) to give a lug/ml Final Assay Concentration (FAC). 40 μl of the final preparation was aliquoted into each well of a 96-well plate. The plate thus prepared was used for compound screening.
The following method step-by-step assay was followed for compound screening. • 1. Seed THP-1 cells (25,000cells/well) containing 1.0 μg/ml LPS in 40 μl of RPMI medium (without FBS) in 96-well, black walled, clear bottom cell culture plates coated with poly-D-lysine (VWR #734-0317) • 2. Add 5 μl compound (8 points half-log dilution, with 10 μM top dose) or vehicle (DMSO 0.1% FAC) to the appropriate wells • 3. Incubate for 3 hours at 37° C., 5% CO2 • 4. Add 5 μl nigericin (Sigma #N7143) (FAC 5 μM) to all wells • 5. Incubate for 1 hr at 37° C., 5% CO2 • 6. At the end of the incubation period, spin plates at 300×g for 3 mins and remove supernatant • 7. Then add 50 μl of resazurin (Sigma #R^7017) (FAC 100 μM resazurin in RPMI medium without FBS) and incubate plates for a further 1-2 hours at 37° C. and 5% CO2 • 8. Plates were read in an Envision reader at Ex 560 nm and Em 590 nm • 9. IC50 data is fitted to a non-linear regression equation (log inhibitor vs response-variable slope 4-parameters)

NLRP3 [2] = target: T1, NLRP3; assay: Human whole blood IL-1β release assay (LPS + nigericin, AlphaLisa); format: cell-based; set-up: Human whole blood in Li-heparin tubes was obtained from healthy donors; from tissue; host or cells: human whole blood from healthy donors, LPS-primed, nigericin-stimulated; conditions: 1 ug/ml LPS, compound 3 hours, nigericin 10 μM 1 hr, IL-1β in supernatant
Method: For systemic delivery, the ability to inhibit NLRP3 when the compounds are present within the bloodstream is of great importance. For this reason, the NLRP3 inhibitory activity of a number of compounds in human whole blood was investigated in accordance with the following protocol.
Human whole blood in Li-heparin tubes was obtained from healthy donors from a volunteer donor panel. • 1. Plate out 80 μl of whole blood containing lug/ml of LPS in 96-well, clear bottom cell culture plate (Corning #3585) • 2. Add 10 μl compound (8 points half-log dilution with 10 μM top dose) or vehicle (DMSO 0.1% FAC) to the appropriate wells • 3. Incubate for 3 hours at 37° C., 5% CO2 • 4. Add 10 μl nigericin (Sigma #N7143) (10 μM FAC) to all wells • 5. Incubate for 1 hr at 37° C., 5% CO2 • 6. At the end of the incubation period, spin plates at 300×g for 5 mins to pellet cells and remove 20 μl of supernatant and add to 96-well v-bottom plates for IL-1β analysis (note: these plates containing the supernatants can be stored at −80° C. to be analysed at a later date) • 7. IL-1β was measured according to the manufacturer protocol (Perkin Elmer-AlphaLisa IL-1 Kit AL220F-5000) • 8. IC50 data is fitted to a non-linear regression equation (log inhibitor vs response-variable slope 4-parameters)

T1 sequence (Q96P20 whole entry): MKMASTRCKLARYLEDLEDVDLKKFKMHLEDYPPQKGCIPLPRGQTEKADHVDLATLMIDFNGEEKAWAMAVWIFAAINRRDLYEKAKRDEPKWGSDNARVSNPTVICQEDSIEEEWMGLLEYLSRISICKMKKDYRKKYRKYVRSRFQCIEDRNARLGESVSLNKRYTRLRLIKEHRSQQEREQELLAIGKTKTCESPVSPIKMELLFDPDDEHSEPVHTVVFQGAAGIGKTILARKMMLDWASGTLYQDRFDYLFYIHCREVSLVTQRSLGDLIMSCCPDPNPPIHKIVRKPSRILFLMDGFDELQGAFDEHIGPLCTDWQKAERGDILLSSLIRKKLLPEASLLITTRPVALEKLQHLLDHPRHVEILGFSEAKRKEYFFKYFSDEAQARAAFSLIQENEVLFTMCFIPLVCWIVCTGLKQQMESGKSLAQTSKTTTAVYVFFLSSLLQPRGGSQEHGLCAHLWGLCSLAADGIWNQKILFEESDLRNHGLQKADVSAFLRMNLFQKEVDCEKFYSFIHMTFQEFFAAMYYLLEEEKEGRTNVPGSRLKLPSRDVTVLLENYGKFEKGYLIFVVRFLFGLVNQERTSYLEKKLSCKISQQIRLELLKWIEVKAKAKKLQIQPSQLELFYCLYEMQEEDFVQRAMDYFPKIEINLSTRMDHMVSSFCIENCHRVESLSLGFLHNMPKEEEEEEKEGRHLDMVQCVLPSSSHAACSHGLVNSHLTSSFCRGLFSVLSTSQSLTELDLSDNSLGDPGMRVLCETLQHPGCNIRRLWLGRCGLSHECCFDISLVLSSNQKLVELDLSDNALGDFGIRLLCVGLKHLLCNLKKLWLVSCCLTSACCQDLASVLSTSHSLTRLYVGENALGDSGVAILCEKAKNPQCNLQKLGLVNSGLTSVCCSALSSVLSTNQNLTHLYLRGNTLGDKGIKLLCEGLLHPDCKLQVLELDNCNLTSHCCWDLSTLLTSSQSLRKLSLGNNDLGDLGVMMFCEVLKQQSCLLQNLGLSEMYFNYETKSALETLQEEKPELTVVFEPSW

SMILES: Cc1nc(N2CCC3CCN(C)CC32)nnc1-c1ccc(C#N)cc1O (single isomer, unassigned) [Example 4B, 4-[3-[(3aR,7aS)-6-Methyl-3,3a,4,5,7,7a-hexahydro-2H-pyrrolo[2,3-c]pyridin-1-yl]-5-methyl-1,2,4-triazin-6-yl]-3-hydroxy-benzonitrile or 4-[3-[(3aS,7aR)-6-methyl-3,3a,4,5,7,7a-hexahydro-2H-pyrrolo[2,3-c]pyridin-1-yl]-5-methyl-1,2,4-triazin-6-yl]-3-hydroxy-benzonitrile]
- IC50 (NLRP3 [1]): > 1000 nM

SMILES: CCN1CCC2CCN(c3nnc(-c4ccc(C#N)cc4O)c(C)n3)C2C1 (single isomer, unassigned) [Example 2B, 4-[3-[(3aR,7aS)-6-Ethyl-3,3a,4,5,7,7a-hexahydro-2H-pyrrolo[2,3-c]pyridin-1-yl]-5-methyl-1,2,4-triazin-6-yl]-3-hydroxy-benzonitrile or 4-[3-[(3aS,7aR)-6-ethyl-3,3a,4,5,7,7a-hexahydro-2H-pyrrolo[2,3-c]pyridin-1-yl]-5-methyl-1,2,4-triazin-6-yl]-3-hydroxy-benzonitrile]
- IC50 (NLRP3 [1]): > 1000 nM

SMILES: CCN1CCC2CCN(c3nnc(-c4ccc5c(c4O)CCO5)c(C)n3)C2C1 (single isomer, unassigned) [Example 1A, 5-[3-[(3aS,7aR)-6-Ethyl-3,3a,4,5,7,7a-hexahydro-2H-pyrrolo[2,3-c]pyridin-1-yl]-5-methyl-1,2,4-triazin-6-yl]-2,3-dihydrobenzofuran-4-ol or 5-[3-[(3aR,7aS)-6-ethyl-3,3a,4,5,7,7a-hexahydro-2H-pyrrolo[2,3-c]pyridin-1-yl]-5-methyl-1,2,4-triazin-6-yl]-2,3-dihydrobenzofuran-4-ol]
- IC50 (NLRP3 [2]): 12 nM
- IC50 (NLRP3 [1]): 1.8 nM

SMILES: CCN1CC[C@H]2CCN(c3nnc(-c4ccc(C#N)cc4O)c(C)n3)[C@H]2C1 (single isomer, unassigned) [Example 2A, 4-[3-[(3aS,7aR)-6-Ethyl-3,3a,4,5,7,7a-hexahydro-2H-pyrrolo[2,3-c]pyridin-1-yl]-5-methyl-1,2,4-triazin-6-yl]-3-hydroxy-benzonitrile or 4-[3-[(3aR,7aS)-6-ethyl-3,3a,4,5,7,7a-hexahydro-2H-pyrrolo[2,3-c]pyridin-1-yl]-5-methyl-1,2,4-triazin-6-yl]-3-hydroxy-benzonitrile]
- IC50 (NLRP3 [2]): 38 nM
- IC50 (NLRP3 [1]): 36.4 nM

SMILES: CCN1CCC2CCN(c3nnc(-c4ccc5c(c4O)CCO5)c(C)n3)C2C1 (single isomer, unassigned) [Example 1B, 5-[3-[(3aR,7aS)-6-Ethyl-3,3a,4,5,7,7a-hexahydro-2H-pyrrolo[2,3-c]pyridin-1-yl]-5-methyl-1,2,4-triazin-6-yl]-2,3-dihydrobenzofuran-4-ol or 5-[3-[(3aS,7aR)-6-ethyl-3,3a,4,5,7,7a-hexahydro-2H-pyrrolo[2,3-c]pyridin-1-yl]-5-methyl-1,2,4-triazin-6-yl]-2,3-dihydrobenzofuran-4-ol]
- IC50 (NLRP3 [2]): 375 nM
- IC50 (NLRP3 [1]): 64.4 nM

SMILES: Cc1nc(N2CC[C@@H]3CCN(C)C[C@@H]32)nnc1-c1ccc2c(c1O)CCO2 (single isomer, unassigned) [Example 3A, 5-[3-[(3aS,7aR)-6-Methyl-3,3a,4,5,7,7a-hexahydro-2H-pyrrolo[2,3-c]pyridin-1-yl]-5-methyl-1,2,4-triazin-6-yl]-2,3-dihydrobenzofuran-4-ol or 5-[3-[(3aR,7aS)-6-methyl-3,3a,4,5,7,7a-hexahydro-2H-pyrrolo[2,3-c]pyridin-1-yl]-5-methyl-1,2,4-triazin-6-yl]-2,3-dihydrobenzofuran-4-ol]
- IC50 (NLRP3 [2]): 7 nM
- IC50 (NLRP3 [1]): 1.9 nM

SMILES: Cc1nc(N2CCC3CCN(C)CC32)nnc1-c1ccc2c(c1O)CCO2 (single isomer, unassigned) [Example 3B, 5-[3-[(3aR,7aS)-6-Methyl-3,3a,4,5,7,7a-hexahydro-2H-pyrrolo[2,3-c]pyridin-1-yl]-5-methyl-1,2,4-triazin-6-yl]-2,3-dihydrobenzofuran-4-ol or 5-[3-[(3aS,7aR)-6-methyl-3,3a,4,5,7,7a-hexahydro-2H-pyrrolo[2,3-c]pyridin-1-yl]-5-methyl-1,2,4-triazin-6-yl]-2,3-dihydrobenzofuran-4-ol]
- IC50 (NLRP3 [2]): 115 nM
- IC50 (NLRP3 [1]): 52.2 nM

SMILES: Cc1nc(N2CC[C@@H]3CCN(C)C[C@@H]32)nnc1-c1ccc(C#N)cc1O (single isomer, unassigned) [Example 4A, 4-[3-[(3aS,7aR)-6-Methyl-3,3a,4,5,7,7a-hexahydro-2H-pyrrolo[2,3-c]pyridin-1-yl]-5-methyl-1,2,4-triazin-6-yl]-3-hydroxy-benzonitrile or 4-[3-[(3aR,7aS)-6-methyl-3,3a,4,5,7,7a-hexahydro-2H-pyrrolo[2,3-c]pyridin-1-yl]-5-methyl-1,2,4-triazin-6-yl]-3-hydroxy-benzonitrile]
- IC50 (NLRP3 [2]): 41 nM
- IC50 (NLRP3 [1]): 47.4 nM
